Results taken from article PMC4619319, “A potent anti-inflammatory peptide from the salivary glands of horsefly” (Parasites & Vectors, 2015).

Legend:
P-ERK2 = assay: Western blot, LPS-induced P-ERK2 in peritoneal macrophages; type: cell-based, mouse; conditions: 20 μg/mL peptide, 100 ng/mL LPS, 30 min, band density ratio to β-actin
Description: (§1) Cells were treated with different concentrations of cecropin-TY1 (0, 5, 10, and 20 μg/mL) in the presence or absence of 100 ng/mL LPS (from E. coli 0111:B4, Sigma-Aldrich, USA). After 30-min incubation, cells were washed twice with ice-cold PBS and lysed with RIPA lysis buffer (Beyotime, China) on ice for 30 min according to our previous method. Protein concentration was quantified by BCA Protein Assay Kit (Thermo, Germany). About 40 μg protein was separated on a 10 % SDS-PAGE gel and transferred to a polyvinylidene difluoride membrane. The membrane was blocked by incubating with 5 % BSA (BD, USA) dissolved in Tris-buffered solution Tween-20 (TBST, 2.42 g/L Trisbase, 8 g/L NaCl, 0.1 % Tween 20, pH 7.6) for 2 h at room temperature. The membrane was then incubated with primary antibodies against ERK, phospho-ERK, p38, phospho-p38, JNK, phospho-JNK, phospho-IκBα, NF-κB p65 and phospho-NF-κB p65 (1:2000, Cell Signaling Technology, USA) and GAPDH/β-actin (1:5000, Santa Cruz Biotechnology, USA) overnight at 4 °C, respectively. After incubation, the immunoblot was washed three times with TBST for 5 min each time, and incubated with secondary antibody (1:5000, Cell Signaling Technology, USA) at room temperature for 1 h. Signals were measured by enhanced chemiluminescence kit in a dark room after washing three times with TBST for 10 min each time (TIANGEN, China).

P-IκBα = assay: Western blot, LPS-induced P-IκBα in peritoneal macrophages; type: cell-based, mouse; conditions: 20 μg/mL peptide, 100 ng/mL LPS, 30 min, band density ratio to β-actin
Description: as §1

nitrite production = assay: LPS-stimulated nitrite (NO) production in peritoneal macrophages; type: cell-based, mouse; conditions: 100 ng/mL LPS, 24 h
Description: (§2) Cells were incubated with peptides (0, 5, 10, and 20 μg/mL) in the presence or absence of LPS (100 ng/mL, from Escherichia coli 0111:B4, Sigma-Aldrich, USA). After 6-h incubation, cells in one plate were washed twice with ice-cold PBS and lysed by Trizol reagent (Life Tech, USA) for total RNA extraction. PrimeScript® Reverse Transcriptase Kit (Takara, Japan) was used to synthesize cDNA for qPCR to examine the transcription levels of inducible nitric oxide synthase (iNOS), which is necessary for NO production. After 24-h incubation, culture medium of each wells of another plate was harvested for nitrite detection, which indirectly reflected the NO production. Nitrite accumulation levels were determined by NO detection kit (Beyotime, China) following the kit instruction.

IL-1β production = assay: LPS-stimulated IL-1β production in peritoneal macrophages (ELISA); type: cell-based, mouse; conditions: 20 μg/mL peptide, 100 ng/mL LPS, 6 h
Description: (§3) Cells were incubated with peptides (0, 5, 10, and 20 μg/mL) with or without 100 ng/mL LPS (from E. coli 0111:B4, Sigma-Aldrich, USA) for 6 h. After treatment, culture medium was collected for TNF-α, IL-1β and IL-6 quantification using enzyme-linked immunosorbent assay (ELISA) kits (Dakewei, China). Cells were washed with ice-cold PBS and lysed by Trizol reagent (Life Tech, USA). Total RNA was extracted for cDNA synthesis to quantify TNF-α, IL-1β and IL-6 transcription levels by qPCR as described in qPCR section.

IL-1β transcription = assay: LPS-stimulated IL-1β transcription in peritoneal macrophages (qPCR); type: cell-based, mouse; conditions: 20 μg/mL peptide, 100 ng/mL LPS, 6 h
Description: (§4) qPCR was performed using SYBR green master mix (Takara, Japan) on a Realplex Mastercycler real-time PCR system (Eppendorf, Germany) according to the manufacturer’s instruction. The gene transcription levels were normalized to GAPDH or β-actinas as illustrated in figure legends and calculated by ΔΔCt method. The accuracy of qPCR results were checked by melting curve analysis. qPCR primers were listed in Additional file 1: Table S1.
as §3

[1] = Circular dichroism, secondary structural components; type: physicochemical; conditions: CD, 25 °C, average of three scans
Description: CD spectra were collected on a Jasco-810 spectropolarimeter (Jasco, Tokyo, Japan) with a 1-mm path-length cell at 25 °C and 0.2-nm intervals from 190 to 260 nm. Cecropin-TY1 was dissolved in H2O, TFE/water solution, SDS/water solution and LPS/water solution at the concentration of 0.2 mg/mL. The data from three scans were averaged and smoothed using the Jasco-810 software for each spectrum. CD data were expressed as the mean residue ellipticity (θ) in deg.cm^2.dmol^−1.

TNF-α transcription = assay: LPS-stimulated TNF-α transcription in peritoneal macrophages (qPCR); type: cell-based, mouse; conditions: 20 μg/mL peptide, 100 ng/mL LPS, 6 h
Description: as §4, §3

iNOS transcription = assay: LPS-stimulated iNOS mRNA transcription in peritoneal macrophages (qPCR); type: cell-based, mouse; conditions: 100 ng/mL LPS, 6 h
Description: as §4, §2

IL-6 transcription = assay: LPS-stimulated IL-6 transcription in peritoneal macrophages (qPCR); type: cell-based, mouse; conditions: 20 μg/mL peptide, 100 ng/mL LPS, 6 h
Description: as §4, §3

[2] = LPS 50 ng/mL in water, peptide 0.2 mg/mL
[3] = LPS 100 ng/mL in water, peptide 0.2 mg/mL
[4] = LPS 200 ng/mL in water, peptide 0.2 mg/mL
[5] = LPS 400 ng/mL in water, peptide 0.2 mg/mL
[6] = SDS 5 mM in water, peptide 0.2 mg/mL
[7] = SDS 10 mM in water, peptide 0.2 mg/mL
[8] = SDS 20 mM in water, peptide 0.2 mg/mL
[9] = SDS 40 mM in water, peptide 0.2 mg/mL

GWLKKIGKKIERVGQNVRNAAISTLPIAQGAAGVAGALN-NH2 [cecropin-TY1, cecropin antimicrobial peptide from salivary glands of horsefly Tabanus yao, 39 residues, C-terminally amidated, synthesized]
inhibition of LPS-induced P-ERK2 expression (P-ERK2): 84.9%
inhibition of LPS-induced P-IκBα expression (P-IκBα): 74.8%
attenuation of LPS-induced nitrite production (nitrite production; 5 μg/mL peptide): about 40.0%
attenuation of LPS-induced nitrite production (nitrite production; 10 μg/mL peptide): ~63.7%
attenuation of LPS-induced nitrite production (nitrite production; 20 μg/mL peptide): ~75.0%
reduction of LPS-induced IL-1β production (IL-1β production): 63.4%
attenuation of LPS-stimulated IL-1β transcription (IL-1β transcription): 67.5%
Beta (%) ([1]; H2O, peptide 0.2 mg/mL): 0.0%
Helix (%) ([1]; H2O, peptide 0.2 mg/mL): 0.0%
Random (%) ([1]; H2O, peptide 0.2 mg/mL): 71.1%
Turn (%) ([1]; H2O, peptide 0.2 mg/mL): 28.9%
Beta (%) [1, 2]: 32.4%
Helix (%) [1, 2]: 0.0%
Random (%) [1, 2]: 55.2%
Turn (%) [1, 2]: 12.4%
Beta (%) [1, 3]: 46.6%
Helix (%) [1, 3]: 2.9%
Random (%) [1, 3]: 47.4%
Turn (%) [1, 3]: 3.1%
Beta (%) [1, 4]: 44.5%
Helix (%) [1, 4]: 12.7%
Random (%) [1, 4]: 41.1%
Turn (%) [1, 4]: 1.7%
Beta (%) [1, 5]: 47.8%
Helix (%) [1, 5]: 14.8%
Random (%) [1, 5]: 37.2%
Turn (%) [1, 5]: 0.1%
Beta (%) [1, 6]: 17.5%
Helix (%) [1, 6]: 45.3%
Random (%) [1, 6]: 37.2%
Turn (%) [1, 6]: 0.0%
Beta (%) [1, 7]: 22.7%
Helix (%) [1, 7]: 41.2%
Random (%) [1, 7]: 36.1%
Turn (%) [1, 7]: 0.0%
Beta (%) [1, 8]: 13.4%
Helix (%) [1, 8]: 46.6%
Random (%) [1, 8]: 40.0%
Turn (%) [1, 8]: 0.0%
Beta (%) [1, 9]: 7.4%
Helix (%) [1, 9]: 54.4%
Random (%) [1, 9]: 38.2%
Turn (%) [1, 9]: 0.0%
Beta (%) ([1]; TFE/H2O 3:7, peptide 0.2 mg/mL): 28.7%
Helix (%) ([1]; TFE/H2O 3:7, peptide 0.2 mg/mL): 28.4%
Random (%) ([1]; TFE/H2O 3:7, peptide 0.2 mg/mL): 42.8%
Turn (%) ([1]; TFE/H2O 3:7, peptide 0.2 mg/mL): 0.0%
Beta (%) ([1]; TFE/H2O 5:5, peptide 0.2 mg/mL): 22.4%
Helix (%) ([1]; TFE/H2O 5:5, peptide 0.2 mg/mL): 36.9%
Random (%) ([1]; TFE/H2O 5:5, peptide 0.2 mg/mL): 40.7%
Turn (%) ([1]; TFE/H2O 5:5, peptide 0.2 mg/mL): 0.0%
Beta (%) ([1]; TFE/H2O 7:3, peptide 0.2 mg/mL): 22.4%
Helix (%) ([1]; TFE/H2O 7:3, peptide 0.2 mg/mL): 37.8%
Random (%) ([1]; TFE/H2O 7:3, peptide 0.2 mg/mL): 39.9%
Turn (%) ([1]; TFE/H2O 7:3, peptide 0.2 mg/mL): 0.0%
Beta (%) ([1]; TFE/H2O 9:1, peptide 0.2 mg/mL): 15.0%
Helix (%) ([1]; TFE/H2O 9:1, peptide 0.2 mg/mL): 45.1%
Random (%) ([1]; TFE/H2O 9:1, peptide 0.2 mg/mL): 39.9%
Turn (%) ([1]; TFE/H2O 9:1, peptide 0.2 mg/mL): 0.0%
attenuation of LPS-stimulated TNF-α transcription (TNF-α transcription): 60.3%
attenuation of LPS-activated iNOS transcription (iNOS transcription; 5 μg/mL peptide): 58.8%
attenuation of LPS-activated iNOS transcription (iNOS transcription; 10 μg/mL peptide): 68.7%
attenuation of LPS-activated iNOS transcription (iNOS transcription; 20 μg/mL peptide): 84.2%
attenuation of LPS-stimulated IL-6 transcription (IL-6 transcription): 94.1%
